Source: the supplement of paper PMC10307832

Columns and labels:
Assay in all cases: relative viability (nuclei count vs DMSO), 5 days (fraction); higher = more cells survive
Pictilisib + Bortezomib = compound: CS(=O)(=O)N1CCN(Cc2cc3nc(-c4cccc5[nH]ncc45)nc(N4CCOCC4)c3s2)CC1 [Pictilisib] + CC(C)C[C@H](NC(=O)[C@H](Cc1ccccc1)NC(=O)c1cnccn1)B(O)O [Bortezomib] (partner 0.002 µM)
Procedure, shortened: (§1)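 Cells from lung cancer lines were seeded into 1536-well plates and, one day later, dosed by pin tool. Treatments were either a single drug or a fixed dose of an anchor drug with five library-drug doses (not always all listed) in √10 steps. After 5 days, nuclei were stained in a one-step fixation (final 0.05% Triton X-100, 1% formaldehyde, 1 ug/ml Hoechst) and counted on 4× images, and relative viability is the treated-to-vehicle nuclei ratio, as the median of duplicate plates.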

Pictilisib + Luminespib = compound: CS(=O)(=O)N1CCN(Cc2cc3nc(-c4cccc5[nH]ncc45)nc(N4CCOCC4)c3s2)CC1 [Pictilisib] + CCNC(=O)c1noc(-c2cc(C(C)C)c(O)cc2O)c1-c1ccc(CN2CCOCC2)cc1 [Luminespib] (partner 0.01 µM)
Procedure, shortened: as §1

MK-2206 + OSI-027 = compound: NC1(c2ccc(-c3nc4ccn5c(=O)[nH]nc5c4cc3-c3ccccc3)cc2)CCC1 [MK-2206] + COc1cccc2cc(-c3nc([C@H]4CC[C@H](C(=O)O)CC4)n4ncnc(N)c34)[nH]c12 [OSI-027] (partner 0.5 µM)
Procedure, shortened: as §1

MK-2206 + Tozasertib = compound: NC1(c2ccc(-c3nc4ccn5c(=O)[nH]nc5c4cc3-c3ccccc3)cc2)CCC1 [MK-2206] + Cc1cc(Nc2cc(N3CCN(C)CC3)nc(Sc3ccc(NC(=O)C4CC4)cc3)n2)n[nH]1 [Tozasertib] (partner 0.1 µM)
Procedure, shortened: as §1

MK-2206 + Alpelisib = compound: NC1(c2ccc(-c3nc4ccn5c(=O)[nH]nc5c4cc3-c3ccccc3)cc2)CCC1 [MK-2206] + Cc1nc(NC(=O)N2CCC[C@H]2C(N)=O)sc1-c1ccnc(C(C)(C)C(F)(F)F)c1 [Alpelisib] (partner 2 µM)
Procedure, shortened: as §1

| Cell Line | relative viability (Pictilisib + Bortezomib; first compound 0.02 µM) | relative viability (Pictilisib + Bortezomib; first compound 0.06325 µM) | relative viability (Pictilisib + Bortezomib; first compound 0.6325 µM) | relative viability (Pictilisib + Bortezomib; first compound 2 µM) | relative viability (Pictilisib + Luminespib; first compound 0.02 µM) | relative viability (Pictilisib + Luminespib; first compound 0.06325 µM) | relative viability (Pictilisib + Luminespib; first compound 0.6325 µM) | relative viability (Pictilisib + Luminespib; first compound 2 µM) | relative viability (MK-2206 + OSI-027; first compound 0.01 µM) | relative viability (MK-2206 + OSI-027; first compound 0.03162 µM) | relative viability (MK-2206 + OSI-027; first compound 0.3162 µM) | relative viability (MK-2206 + OSI-027; first compound 1 µM) | relative viability (MK-2206 + Tozasertib; first compound 0.01 µM) | relative viability (MK-2206 + Tozasertib; first compound 0.03162 µM) | relative viability (MK-2206 + Tozasertib; first compound 0.3162 µM) | relative viability (MK-2206 + Tozasertib; first compound 1 µM) | relative viability (MK-2206 + Alpelisib; first compound 0.01 µM) | relative viability (MK-2206 + Alpelisib; first compound 0.03162 µM) | relative viability (MK-2206 + Alpelisib; first compound 0.3162 µM) | relative viability (MK-2206 + Alpelisib; first compound 1 µM) |
| --- | --- | --- | --- | --- | --- | --- | --- | --- | --- | --- | --- | --- | --- | --- | --- | --- | --- | --- | --- | --- |
| LXF-289 | 1.04 | 1.05 | 0.993 | 0.819 | 0.687 | 0.514 | 0.78 | 0.344 | 0.782 | 0.862 | 0.604 | 0.743 | 0.209 | 0.201 | 0.238 | 0.172 | 1.06 | 1.09 | 1.02 | 1 |
| NCI-H460 | 1.1 | 1.36 | 0.57 | 0.111 | 0.0289 | 0.0281 | 0.0266 | 0.019 | 0.642 | 0.521 | 0.321 | 0.455 | 0.362 | 0.691 | 0.601 | 0.665 | 0.481 | 0.419 | 0.256 | 0.231 |
| NCI-H1792 | 0.986 | 0.962 | 0.835 | 0.418 | 0.366 | 0.41 | 0.25 | 0.225 | 0.718 | 0.824 | 0.686 | 0.622 | – | – | – | – | 0.673 | 0.652 | 0.706 | 0.773 |
| EMC-BAC-2 | 1.05 | 1.2 | 0.917 | 0.68 | 1.23 | 0.945 | 0.926 | 0.656 | 0.415 | 0.364 | 0.287 | 0.313 | 0.333 | 0.298 | 0.271 | 0.261 | 0.768 | 0.764 | 0.729 | 0.693 |
| CAL-12T | 1.13 | 1.15 | 0.816 | 0.527 | 0.452 | 0.249 | 0.339 | 0.143 | 0.67 | 0.554 | 0.452 | 0.485 | 0.289 | 0.304 | 0.317 | 0.327 | 1.04 | 1.03 | 1.05 | 0.895 |
| ChaGo-K-1 | 1.16 | 1.1 | 1.09 | 0.828 | 0.663 | 0.63 | 0.502 | 0.499 | 0.575 | 0.631 | 0.477 | 0.463 | 0.236 | 0.268 | 0.2 | 0.228 | – | – | – | – |
| COR-L 105 | 1.1 | 0.658 | 0.779 | 0.527 | 0.987 | 0.803 | 0.715 | 0.466 | 0.497 | 0.713 | 0.531 | 0.556 | 0.419 | 0.309 | 0.403 | 0.345 | 0.98 | 0.951 | 0.825 | 0.677 |
| NCI-H1944 | – | – | – | – | 0.768 | 0.46 | 0.498 | 0.239 | 0.478 | 0.447 | 0.361 | 0.326 | 0.249 | 0.244 | 0.251 | 0.24 | 0.912 | 0.834 | 0.833 | 0.752 |
